Active and inactive are the calls of the source.
Experiments:
[1] = M. tuberculosis H37Rv growth inhibitors, H37Rv strain (AID 1626); format: functional
[2] = biological target: Epstein-Barr nuclear antigen 1 (Epstein-Barr virus (strain B95-8) (HHV-4) (Human herpesvirus 4), UniProt P03211); assay: inhibition of EBV nuclear antigen 1 DNA binding – biochemical, fluorescence polarization, 1536-well, dose response (AID 2381); parameters: species or system human gammaherpesvirus 4;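 further: fluorescence polarization of a Cy5 DNA probe bound by EBNA-1 protein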
[3] = biological target: Lytic switch protein BZLF1 (Epstein-Barr virus (strain B95-8) (HHV-4) (Human herpesvirus 4), UniProt P03206); assay: inhibition of BZLF1 ZTA DNA binding – biochemical, fluorescence polarization, Epstein-Barr virus, 1536-well, counter-screen for EBNA-1 inhibitor project, dose response (AID 2377); parameters: species or system human gammaherpesvirus 4;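 further: fluorescence polarization of Cy5-labelled ZRE DNA probe bound by purified Zta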
[4] = Trypanosoma cruzi growth suppression in host cells – NIH3T3 host cells, beta-gal luminescence, confirmation (AID 2044); format: functional, cell-based;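 further: intracellular parasites grown in NIH/3T3 mouse fibroblasts as host cells; luminescent beta-galactosidase reporter signal from transgenic T. cruzi replicating inside host cells; inhibitors lower the luminescence signal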
[5] = Luminescence-based dose response cell-based high throughput screening assay for cytotoxic compounds using the IEC-6 intestinal epithelial cell line. [Related pubchem assays: 1858 (Summary AID.), 1825 (Counterscreen.), 1907 (Confirmation screen.)]; format: functional
[6] = NIH3T3 cell viability loss – ATP luminescence, mouse fibroblasts, counter-screen, dose response (AID 2010); format: functional, cell-based;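 further: cells exposed to compound for about 90 hours before reading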
[7] = tested on: INS1; assay: INS-1E survival protection against cytokine death – cell-based, luminescence, retest, dose response (AID 449756); format: functional; conditions: Rattus norvegicus;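 further: cell death triggered by IL-1 beta plus TNF-alpha plus IFN-gamma mixture; protective hits raise ATP signal compared with cytokine alone wells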
[8] = blockers of HIV-1 envelope-mediated cell-cell fusion – cherry-pick, dose response (AID 652057); format: functional, cell-based
[9] = viability loss in CEM21 cells – cell-based, CellTiter-Glo luminescence, cherry-picked, cytotoxicity control for viral fusion inhibitor project, dose response (AID 652042); format: functional;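 further: potency for signal decrease meaning cytotoxicity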
[10] = blockers of HIV-1 ZM109 envelope-driven cell-cell fusion – HeLa effector, CEM target cells, luciferase, cherry-pick, dose response (AID 652058); format: functional, cell-based;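 further: luciferase signal from HIV-1 Env mediated cell-cell fusion of effector and target cells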
[11] = off-target signal loss in HeLa-CEM21 co-culture – HeLa F-luc CTL cells, cherry-picked, counter-screen for HIV-1 Env fusion inhibitor project, dose response (AID 652040); format: functional, cell-based;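 further: potency for signal decrease marking cytotoxic or nonspecific inhibition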
[12] = HIV-1 AD8 envelope cell-cell fusion blockers – cherry-pick, dose response (AID 652062); format: functional, cell-based;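 further: luciferase signal from cell-cell fusion driven by HIV-1 clade B AD8 Env; potency is for inhibitors of fusion seen as a drop in luminescence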
[13] = biological target: T1, COUP transcription factor 2 (Homo sapiens, UniProt P24468); assay: Luminescence-based cell-based high throughput dose response assay to identify inhibitors of COUP-TFII (NR2F2).; format: functional;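 further: HEK293 cells transiently cotransfected with COUP-TFII expression vector and reporter; luciferase reporter luminescence driven by COUP-TFII from the pX2-168 reporter plasmid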
T1 sequence (P24468 whole entry): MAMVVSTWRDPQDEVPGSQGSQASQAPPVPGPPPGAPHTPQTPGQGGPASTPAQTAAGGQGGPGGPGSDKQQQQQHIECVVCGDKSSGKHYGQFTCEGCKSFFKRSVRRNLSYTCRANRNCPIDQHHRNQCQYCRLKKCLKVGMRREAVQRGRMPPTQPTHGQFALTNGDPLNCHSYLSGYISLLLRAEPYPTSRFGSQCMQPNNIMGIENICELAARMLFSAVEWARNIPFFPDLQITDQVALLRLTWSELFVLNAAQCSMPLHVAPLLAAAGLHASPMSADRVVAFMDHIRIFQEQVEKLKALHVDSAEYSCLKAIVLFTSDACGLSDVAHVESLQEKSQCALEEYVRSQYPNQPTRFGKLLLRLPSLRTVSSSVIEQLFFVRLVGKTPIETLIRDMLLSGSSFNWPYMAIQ

[14] = biological target: Luciferin 4-monooxygenase (Photinus pyralis, UniProt P08659); assay: Counter Screen for Luciferase-based Assay Positives. [Related pubchem assays: 620, 618, 411 ]
[15] = tested on: HT-1080; assay: HT1080 cell viability loss – fluorescence readout (AID 620); format: functional, cell-based; conditions: Homo sapiens

Lytic switch protein BZLF1, sequence (P03206 whole entry): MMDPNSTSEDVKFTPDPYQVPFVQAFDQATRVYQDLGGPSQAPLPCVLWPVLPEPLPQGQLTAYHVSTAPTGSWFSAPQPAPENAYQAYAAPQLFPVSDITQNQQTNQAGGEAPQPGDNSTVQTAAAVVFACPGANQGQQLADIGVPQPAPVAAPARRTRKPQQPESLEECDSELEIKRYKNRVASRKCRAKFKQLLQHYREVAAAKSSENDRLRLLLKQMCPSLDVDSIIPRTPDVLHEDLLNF
Luciferin 4-monooxygenase, sequence (P08659 whole entry): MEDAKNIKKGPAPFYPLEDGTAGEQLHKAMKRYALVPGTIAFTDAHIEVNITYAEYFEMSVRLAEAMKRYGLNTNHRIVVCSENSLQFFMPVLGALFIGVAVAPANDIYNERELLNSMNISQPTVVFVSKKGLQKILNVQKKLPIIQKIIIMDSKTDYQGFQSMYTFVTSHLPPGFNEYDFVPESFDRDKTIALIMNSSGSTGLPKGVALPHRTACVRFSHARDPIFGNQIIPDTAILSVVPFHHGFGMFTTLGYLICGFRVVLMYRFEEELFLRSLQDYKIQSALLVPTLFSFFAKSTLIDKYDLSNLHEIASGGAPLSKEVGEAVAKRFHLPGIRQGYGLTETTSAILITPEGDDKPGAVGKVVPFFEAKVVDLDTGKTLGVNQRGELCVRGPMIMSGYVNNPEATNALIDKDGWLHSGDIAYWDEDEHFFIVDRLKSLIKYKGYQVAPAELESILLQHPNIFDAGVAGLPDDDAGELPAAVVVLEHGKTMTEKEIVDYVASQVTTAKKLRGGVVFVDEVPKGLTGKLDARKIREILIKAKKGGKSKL
Epstein-Barr nuclear antigen 1, sequence (P03211 whole entry): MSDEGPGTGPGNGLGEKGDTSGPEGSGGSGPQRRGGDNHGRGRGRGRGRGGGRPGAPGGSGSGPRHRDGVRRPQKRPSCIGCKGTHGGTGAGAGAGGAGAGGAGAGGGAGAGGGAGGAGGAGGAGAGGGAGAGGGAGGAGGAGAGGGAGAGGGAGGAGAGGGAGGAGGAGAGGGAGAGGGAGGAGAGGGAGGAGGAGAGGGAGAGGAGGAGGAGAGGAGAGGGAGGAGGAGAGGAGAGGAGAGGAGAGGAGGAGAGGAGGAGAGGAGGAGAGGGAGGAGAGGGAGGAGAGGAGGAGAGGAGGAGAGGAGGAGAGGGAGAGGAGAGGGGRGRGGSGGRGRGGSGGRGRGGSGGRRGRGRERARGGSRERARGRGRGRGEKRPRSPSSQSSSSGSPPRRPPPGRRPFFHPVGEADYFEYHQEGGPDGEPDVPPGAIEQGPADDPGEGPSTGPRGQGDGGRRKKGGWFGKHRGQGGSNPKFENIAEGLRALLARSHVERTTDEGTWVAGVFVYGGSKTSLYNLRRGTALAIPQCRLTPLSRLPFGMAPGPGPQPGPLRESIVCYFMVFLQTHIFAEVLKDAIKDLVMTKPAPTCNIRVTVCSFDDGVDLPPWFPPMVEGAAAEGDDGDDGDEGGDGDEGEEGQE

With `COc1ccc(N2CCN(c3nc(-c4cccs4)nc4ccccc34)CC2)cc1` the IC50 [1] was > 100 µM (active).
For `Cc1ccc(C(=O)Nc2nc3ccc(S(C)(=O)=O)cc3s2)cc1C`, the IC50 [2] was 4.48 µM (active) and the IC50 [3] was > 111 µM (not active).
For `CC(C)(C)c1ccc(C2CC2C(=O)N/N=C\c2ccc[nH]2)cc1` (stereo not given), the EC50 [4] was 0.389 µM (active), the IC50 [5] was 1.44 µM (active) and the EC50 [6] was 3.25 µM (active). For the same molecule, the AC50 [7] was 0.854 µM (active), the AC50 [8] was 3.52 µM (active) and the AC50 [9] was 4.53 µM (active). For the same molecule, the AC50 [10] was 1.5 µM (active), the AC50 [11] was 2.75 µM (active) and the AC50 [12] was 1.97 µM (active). For the same molecule, the IC50 [13] was 2.66 µM (active).
For `Clc1ccccc1OCc1nc(-c2ccccn2)no1`, the EC50 [14] was > 100 µM (not active) and the EC50 [15] was > 50 µM (not active).

From ChEMBL document CHEMBL1201862, “PubChem BioAssay data set” (2004)
